Like-named read-outs stand apart in the source and are kept apart here. Ends that are not written are not given here.
Columns and labels:
[1] = biological target: T1, GMP-140 (Homo sapiens, UniProt P16109); assay: Neutrophil adhesion to purified GMP-140 immobilized on plastic wells (myeloperoxidase readout); type: cell-based; parameters: from tissue; host or cells: outdated human platelet packs (platelet lysate); conditions: for % Bound (neutrophils bound to immobilized GMP-140 in the presence of GMP-140-derived peptide): peptide 1.5 mM, cells bound with control C-terminal peptide 761-777 normalized to 100%
T1 sequence (P16109 42-830): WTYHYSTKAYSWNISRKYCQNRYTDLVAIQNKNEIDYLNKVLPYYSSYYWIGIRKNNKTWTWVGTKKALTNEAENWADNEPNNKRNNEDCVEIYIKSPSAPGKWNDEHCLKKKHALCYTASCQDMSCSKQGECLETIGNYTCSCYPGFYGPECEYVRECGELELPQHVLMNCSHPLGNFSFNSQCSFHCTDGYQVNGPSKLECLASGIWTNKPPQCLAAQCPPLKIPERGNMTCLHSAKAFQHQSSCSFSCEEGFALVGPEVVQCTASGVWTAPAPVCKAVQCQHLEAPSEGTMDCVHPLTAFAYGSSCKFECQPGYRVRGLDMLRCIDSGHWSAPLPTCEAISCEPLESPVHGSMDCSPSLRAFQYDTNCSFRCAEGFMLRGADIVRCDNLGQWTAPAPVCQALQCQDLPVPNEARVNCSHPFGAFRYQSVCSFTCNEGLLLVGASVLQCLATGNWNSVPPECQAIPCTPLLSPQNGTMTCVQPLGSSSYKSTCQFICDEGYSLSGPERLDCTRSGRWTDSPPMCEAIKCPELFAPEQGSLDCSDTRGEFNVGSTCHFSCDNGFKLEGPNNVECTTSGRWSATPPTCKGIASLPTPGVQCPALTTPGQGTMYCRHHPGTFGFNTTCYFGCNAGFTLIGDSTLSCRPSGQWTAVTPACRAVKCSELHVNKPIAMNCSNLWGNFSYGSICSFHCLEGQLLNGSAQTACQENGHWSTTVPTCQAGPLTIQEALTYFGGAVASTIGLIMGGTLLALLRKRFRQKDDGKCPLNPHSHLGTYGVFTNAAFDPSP
Text: Peptides were screened for their ability to inhibit neutrophil adhesion to purified GMP-140 immobilized on plastic wells, using the assay described by Geng, et al., Nature 343, 757-760 (1990).
Human neutrophils are isolated from heparinized whole blood by density gradient centrifugation on Mono-Poly resolving media, Flow Laboratories. Neutrophil suspensions are greater than 98% pure and greater than 95% viable by trypan blue exclusion. For adhesion assays, neutrophils are suspended at a concentration of 2×10^6 cells/ml in Hanks' balanced salt solution containing 1.26 mM Ca^2+ and 0.81 mM Mg^2+ (HBSS, Gibco) with 5 mg/ml human serum albumin (HBSS/HSA). Adhesion assays are conducted in triplicate in 96-well microtiter plates, Corning, incubated at 4° C. overnight with 50 microliters of various protein solutions.
GMP-140 is plated at 5 micrograms/ml and the control proteins: human serum albumin (Alb), platelet glycoprotein IIb/IIIa (IIb), von Willebrand factor (vWF), fibrinogen (FIB), thrombomodulin (TM), gelatin (GEL) or human serum (HS), are added at 50 micrograms/ml. All wells are blocked for 2 h at 22° C. with 300 microliters HBSS containing 10 mg/ml HSA, then washed three times with HBSS containing 0.1% Tween-20 and once with HBSS. Cells (2×10^5 per well were added to the wells and incubated at 22° C. for 20 min. The wells were then filled with HBSS/HSA, sealed with acetate tape (Dynatech), and centrifuged inverted at 150 g for 5 min. After discarding nonadherent cells and supernates, the contents of each well are solubilized with 200 microliters 0.5% hexadecyltrimethylammonium bromide, Sigma, in 50 mM potassium phosphate, pH 6.0, and assayed for myeloperoxidase activity, Ley, et al., Blood 73, 1324-1330 (1989). The number of cells bound was derived from a standard curve of myeloperoxidase activity versus numbers of cells. Under all assay conditions, the cells released less than 5% of total myeloperoxidase and lactate dehydrogenase. Results are presented in Table I. 100% adhesion is that seen in the presence of the C-terminal peptide (amino acid residues 761-777 of GMP-140) as a negative control; this value is the same as controls in which neither peptide nor antibody is added to the cells. Inhibition is read as a lower percent adhesion, so that a value of 5% mean that 95% of the specific adhesion was inhibited.
Peptides from the lectin-like domain of GMP-140 were assayed for their ability to inhibit adhesion of neutrophils to immobilized GMP-140 in the assay described in example 1. Concentrations tested ranged from 0.1 mM to 1.5 mM.

[2] = biological target: T1, GMP-140; assay: ELISA of binding of biotinylated monoclonal antibodies G1, G2, G3 to immobilized GMP-140 with soluble peptide; parameters: from tissue; host or cells: outdated human platelet packs (platelet lysate); conditions: peptide 1.5 mM; for remaining activity at 1500 µM: 2 h
Experimental: Based on competitive ELISAs with the purified protein, G1, G2, and G3 each recognize distinct or only partially overlapping epitopes. 1.5 mM peptide was added to biotinylated mAb at a concentration of 2.5 micrograms/ml, which were then added to the wells containing GMP-140, as described in example 1. Binding was measured by an ELISA with an avidin detection system.
The monoclonal antibodies were biotinylated as follows: to 0.5 ml of purified IgG antibody (1 mg/ml in PBS, pH 7.4) was added 50 μl of 3.2 mM N-hydroxysuccinimide biotin in dimethyl sulfoxide and 50 μl of 1 M NaHCO3. After a 2 hour incubation at room temperature in the dark, the reaction was stopped with 50 μl of 1 M NH4 Cl. The biotinylated antibody was then separated from other components by gel filtration on a PD-10 column equilibrated in PBS. The ELISA was performed as follows; all steps were performed at room temperature.
Biotinylated antibody (2.5 μg/ml) with or without 1.5 mM peptide was incubated with wells coated with GMP-140 as described in example 1. After a 2 hour incubation, the antibody was removed, the wells were washed, and 0.1 ml of horseradish peroxidase-conjugated stepavidin (Pierce), diluted 1:1000 in HBSS/HSA, was added for 30 min. The wells were then washed and 0.1 ml of peroxidase substrate (Pierce) was added for 15 min. The color reaction was read at 405 nm.

[3] = mAb G1 2.5 micrograms/ml, read-out: % Binding of Biotinylated MAbs G1
[4] = mAb G2 2.5 micrograms/ml, read-out: % Binding of Biotinylated MAbs G2
[5] = mAb G3 2.5 micrograms/ml, read-out: % Binding of Biotinylated MAbs G3

% Bound (neutrophils bound to immobilized GMP-140 in the presence of GMP-140-derived peptide) [1] [%] | remaining activity at 1500 µM [2, 3] [%] | remaining activity at 1500 µM [2, 4] [%] | remaining activity at 1500 µM [2, 5] [%] | Substance | also measured
13 |  |  |  | RKNNKTWTWV [54-63] | 
91 |  |  |  | VAIQNKNE [27-34] | 
 | 98 | 100 | 108 | LKKKHAL [LECTIN 110-116] | 
 |  |  |  | elastase [reference compound] | adhesion of neutrophils to immobilized GMP-140 abolished ([1]; neutrophils treated with the protease): Greater than 70%
 | 100 | 119 | 104 | RKRFRQK [TRANSMEMBRANE 755-761, reference compound] | 
22 |  |  |  | AENWADNEPNNKRNNED [73-89] | % Binding of Biotinylated MAbs G1 ([2]; mAb G1 2.5 micrograms/ml): 95%; % Binding of Biotinylated MAbs G2 ([2]; mAb G2 2.5 micrograms/ml): 99%; % Binding of Biotinylated MAbs G3 ([2]; mAb G3 2.5 micrograms/ml): 94%
 | 97 | 104 | 109 | LETIGNYT [EGF 134-141] | 
12 |  |  |  | CQNRYTDLVAIQ [19-30] | % Binding of Biotinylated MAbs G3 ([2]; mAb G3 2.5 micrograms/ml): 54%
92 |  |  |  | CQNRYTDL [19-26] | 
85 |  |  |  | NRYTDLVA [21-28] | 
100 | 100 | 100 | 100 | KDDGKCPLNPHSHLGTY [C-TERMINUS 761-777, reference compound] | 
102 |  |  |  | TWTWV [59-63] | 
15 |  |  |  | RKNNKTWTWVGTKKALTNE [54-72] | % Binding of Biotinylated MAbs G1 ([2]; mAb G1 2.5 micrograms/ml): 106%; % Binding of Biotinylated MAbs G2 ([2]; mAb G2 2.5 micrograms/ml): 125%; % Binding of Biotinylated MAbs G3 ([2]; mAb G3 2.5 micrograms/ml): 104%
7 |  |  |  | YTDLVAIQ [23-30] | 
96 |  |  |  | NNKTW [56-60] | 
5 |  |  |  | CQNRYTDLVAIQNKNE [19-34] | % Binding of Biotinylated MAbs G1 ([2]; mAb G1 2.5 micrograms/ml): 23%; % Binding of Biotinylated MAbs G2 ([2]; mAb G2 2.5 micrograms/ml): 26%; % Binding of Biotinylated MAbs G3 ([2]; mAb G3 2.5 micrograms/ml): 24%
92 |  |  |  | GTKKALTNE [64-72] | 
 | 106 | 99 | 104 | CQDDGK [SECRETORY 720-721/762-765, reference compound] | 
 | 92 | 92 | 104 | YTASCQDMS [LECTIN/EGF 118-126] | 
70 |  |  |  | KNNKTW [55-60] | 

From patent US5198424A, “Functionally active selectin-derived peptides” (Board of Regents of the University of Oklahoma, priority 1992, dated 1993)
